Activity calls are given as the source filed them.
What was measured:
UMP-CMP kinase = target: T1, UMP-CMP kinase (Homo sapiens, UniProt P30085)
T1 sequence (P30085 whole entry): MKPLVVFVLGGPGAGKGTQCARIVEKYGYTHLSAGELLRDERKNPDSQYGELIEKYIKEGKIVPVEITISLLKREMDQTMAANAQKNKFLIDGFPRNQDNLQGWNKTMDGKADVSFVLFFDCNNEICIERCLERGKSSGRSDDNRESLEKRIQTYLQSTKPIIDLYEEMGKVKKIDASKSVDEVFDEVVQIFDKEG

[1] = target: T2, Serine/threonine-protein kinase PLK4 (Homo sapiens, UniProt O00444)
T2 sequence (O00444 whole entry): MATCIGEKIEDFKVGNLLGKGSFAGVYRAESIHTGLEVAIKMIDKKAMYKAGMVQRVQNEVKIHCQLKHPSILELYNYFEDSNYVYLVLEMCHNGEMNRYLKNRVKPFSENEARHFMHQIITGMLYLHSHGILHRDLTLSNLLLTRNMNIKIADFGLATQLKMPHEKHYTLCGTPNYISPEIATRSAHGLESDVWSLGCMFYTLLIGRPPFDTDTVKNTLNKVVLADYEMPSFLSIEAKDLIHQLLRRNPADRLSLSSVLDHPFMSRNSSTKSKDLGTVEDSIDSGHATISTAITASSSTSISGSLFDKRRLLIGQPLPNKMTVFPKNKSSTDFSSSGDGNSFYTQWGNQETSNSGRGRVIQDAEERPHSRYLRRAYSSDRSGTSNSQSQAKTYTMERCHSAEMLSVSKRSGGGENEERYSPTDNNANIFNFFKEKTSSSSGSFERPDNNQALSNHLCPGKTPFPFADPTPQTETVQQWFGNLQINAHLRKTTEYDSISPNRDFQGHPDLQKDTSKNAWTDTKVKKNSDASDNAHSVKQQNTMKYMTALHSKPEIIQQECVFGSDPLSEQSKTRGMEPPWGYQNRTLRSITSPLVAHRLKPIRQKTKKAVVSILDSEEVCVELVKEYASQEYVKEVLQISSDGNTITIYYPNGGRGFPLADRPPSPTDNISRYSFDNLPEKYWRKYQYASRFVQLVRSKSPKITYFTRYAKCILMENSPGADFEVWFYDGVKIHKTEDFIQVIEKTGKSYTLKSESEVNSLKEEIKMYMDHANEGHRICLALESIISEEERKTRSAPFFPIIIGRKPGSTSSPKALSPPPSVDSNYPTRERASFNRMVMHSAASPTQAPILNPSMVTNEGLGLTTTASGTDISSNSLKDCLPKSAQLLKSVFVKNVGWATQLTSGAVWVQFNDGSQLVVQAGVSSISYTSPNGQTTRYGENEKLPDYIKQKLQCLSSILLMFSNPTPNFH

[2] = target: T3, Exosome RNA helicase MTR4 (Homo sapiens, UniProt P42285)
T3 sequence (P42285 whole entry): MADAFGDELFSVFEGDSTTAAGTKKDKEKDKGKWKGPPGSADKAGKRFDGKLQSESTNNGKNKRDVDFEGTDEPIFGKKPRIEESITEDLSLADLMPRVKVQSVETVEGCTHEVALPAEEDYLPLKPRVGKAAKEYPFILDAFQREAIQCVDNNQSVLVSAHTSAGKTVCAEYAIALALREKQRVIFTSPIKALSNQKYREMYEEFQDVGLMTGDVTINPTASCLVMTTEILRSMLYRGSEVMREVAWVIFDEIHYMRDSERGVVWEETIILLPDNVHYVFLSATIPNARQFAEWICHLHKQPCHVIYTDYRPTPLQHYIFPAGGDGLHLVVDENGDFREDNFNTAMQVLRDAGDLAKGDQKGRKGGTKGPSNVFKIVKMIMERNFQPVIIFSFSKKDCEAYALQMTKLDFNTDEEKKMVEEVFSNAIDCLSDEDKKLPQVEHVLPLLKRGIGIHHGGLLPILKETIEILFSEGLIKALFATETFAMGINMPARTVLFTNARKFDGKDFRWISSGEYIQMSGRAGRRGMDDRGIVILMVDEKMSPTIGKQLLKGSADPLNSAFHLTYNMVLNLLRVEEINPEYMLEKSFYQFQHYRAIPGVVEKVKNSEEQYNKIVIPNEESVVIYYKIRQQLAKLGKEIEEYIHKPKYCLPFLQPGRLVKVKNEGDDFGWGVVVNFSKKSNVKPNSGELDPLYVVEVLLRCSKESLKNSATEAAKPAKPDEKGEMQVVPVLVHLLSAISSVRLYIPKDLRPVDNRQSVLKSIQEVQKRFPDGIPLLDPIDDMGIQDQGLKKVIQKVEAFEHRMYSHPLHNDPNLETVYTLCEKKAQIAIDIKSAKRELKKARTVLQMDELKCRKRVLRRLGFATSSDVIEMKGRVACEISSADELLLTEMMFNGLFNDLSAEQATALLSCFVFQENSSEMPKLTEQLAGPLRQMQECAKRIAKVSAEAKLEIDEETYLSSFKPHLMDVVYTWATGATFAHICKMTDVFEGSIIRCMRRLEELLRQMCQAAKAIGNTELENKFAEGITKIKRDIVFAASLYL
Further: in the data inactive means no Kd found up to 30 µM.

CCc1cnn2c(NCc3ccc[n+]([O-])c3)cc(N3CCCC[C@H]3CCO)nc12 [DINACICLIB]
Kd (UMP-CMP kinase): > 30 µM (inactive)
Kd [1]: > 30 µM (inactive)
Kd [2]: > 30 µM (inactive)

Cn1ncc(Cl)c1-c1cc(C(=O)N[C@H](CN)Cc2cccc(F)c2)sc1Cl [AFURESERTIB]
Kd [1]: > 30 µM (inactive)
Kd [2]: > 30 µM (inactive)

CC[C@H](Nc1ncnc2[nH]cnc12)c1nc2cccc(F)c2c(=O)n1-c1ccccc1 [IDELALISIB]
Kd [1]: > 30 µM (inactive)
Kd [2]: > 30 µM (inactive)

O=C(O)[C@]1(Cc2cccc(Nc3nccs3)n2)CC[C@@H](Oc2cccc(Cl)c2F)CC1 [MK-5108]
Kd (UMP-CMP kinase): > 30 µM (inactive)
Kd [1]: 0.183 µM (active)
Kd [2]: > 30 µM (inactive)

CN(C)C(=O)c1cc2cnc(Nc3ccc(N4CCNCC4)cn3)nc2n1C1CCCC1 [RIBOCICLIB]
Kd [1]: > 30 µM (inactive)
Kd [2]: > 30 µM (inactive)

C[C@@H]1CN(Cc2ccc(F)cc2)[C@@H](C)CN1C(=O)c1cc2c(C(=O)C(=O)N(C)C)cn(C)c2cc1Cl [TALMAPIMOD]
Kd (UMP-CMP kinase): > 30 µM (inactive)
Kd [1]: > 30 µM (inactive)
Kd [2]: > 30 µM (inactive)

O=C1NC(=O)/C(=C/c2ccc3nccc(-c4ccncc4)c3c2)S1 [GSK-1059615]
Kd [1]: > 30 µM (inactive)
Kd [2]: > 30 µM (inactive)

Cn1cc(-c2ccc3nnc(C(F)(F)c4ccc5ncccc5c4)n3n2)cn1 [JNJ-38877605]
Kd [1]: > 30 µM (inactive)
Kd [2]: > 30 µM (inactive)

CO[C@H]1C[C@@H]2CC[C@@H](C)[C@@](O)(O2)C(=O)C(=O)N2CCCC[C@H]2C(=O)O[C@H]([C@H](C)C[C@@H]2CC[C@@H](OCCO)[C@H](OC)C2)CC(=O)[C@H](C)/C=C(\C)[C@@H](O)[C@@H](OC)C(=O)[C@H](C)C[C@H](C)/C=C/C=C/C=C/1C [EVEROLIMUS]
Kd (UMP-CMP kinase): > 30 µM (inactive)
Kd [1]: > 30 µM (inactive)
Kd [2]: > 30 µM (inactive)

CC(C)Nc1cc(-c2c[nH]c(C(=O)N[C@H](CO)c3cccc(Cl)c3)c2)c(Cl)cn1 [ULIXERTINIB]
Kd (UMP-CMP kinase): > 30 µM (inactive)
Kd [1]: > 30 µM (inactive)
Kd [2]: > 30 µM (inactive)

COc1cc2nccc(Oc3ccc(NC(=O)NC4CC4)c(Cl)c3)c2cc1C(N)=O [LENVATINIB]
Kd (UMP-CMP kinase): > 30 µM (inactive)
Kd [2]: > 30 µM (inactive)

Cc1ccc(-n2nc(C(C)(C)C)cc2NC(=O)NCc2cc(F)ccc2Oc2ccc3c(cnn3CCO)c2)cc1 [PEXMETINIB]
Kd (UMP-CMP kinase): > 30 µM (inactive)
Kd [1]: > 30 µM (inactive)
Kd [2]: > 30 µM (inactive)

OCCn1cc(-c2cnc3nnn(Cc4ccc5ncccc5c4)c3n2)cn1 [PF-04217903]
Kd (UMP-CMP kinase): > 30 µM (inactive)
Kd [1]: > 30 µM (inactive)
Kd [2]: > 30 µM (inactive)

CC(=O)Nc1cccc(-n2c(=O)n(C3CC3)c(=O)c3c(Nc4ccc(I)cc4F)n(C)c(=O)c(C)c32)c1 [TRAMETINIB]
Kd (UMP-CMP kinase): > 30 µM (inactive)
Kd [1]: > 30 µM (inactive)
Kd [2]: > 30 µM (inactive)

CN1CCN(c2ccc3nc(-c4c(N)c5c(F)cccc5[nH]c4=O)[nH]c3c2)CC1 [DOVITINIB]
Kd [2]: > 30 µM (inactive)

COC(=O)N[C@@H](C)CNc1nccc(-c2cn(C(C)C)nc2-c2cc(Cl)cc(NS(C)(=O)=O)c2F)n1 [ENCORAFENIB]
Kd (UMP-CMP kinase): > 30 µM (inactive)
Kd [1]: > 30 µM (inactive)
Kd [2]: > 30 µM (inactive)

O=C(Nc1ccc(-c2ccnc(Nc3ccc(N4CCOCC4)cc3)n2)cc1)C1CCCN1 (stereo not given) [XL-019]
Kd [1]: 0.908 µM (active)
Kd [2]: > 30 µM (inactive)

Cc1cc(Nc2cc(N3CCN(C)CC3)nc(/C=C/c3ccccc3)n2)n[nH]1 [ENMD-2076]
Kd (UMP-CMP kinase): > 30 µM (inactive)
Kd [2]: > 30 µM (inactive)

CNC(=O)CN1CCC(Oc2cc3c(Nc4cccc(Cl)c4F)ncnc3cc2OC)CC1 [SAPITINIB]
Kd [1]: > 30 µM (inactive)
Kd [2]: > 30 µM (inactive)

CNC(=O)c1ccc(C)c(-n2c(C)cc(OCc3ccc(F)cc3F)c(Br)c2=O)c1 [PH-797804]
Kd [1]: > 30 µM (inactive)
Kd [2]: > 30 µM (inactive)

CCN1CCN(Cc2ccc(-c3cc4c(N[C@H](C)c5ccccc5)ncnc4[nH]3)cc2)CC1 [AEE-788]
Kd [1]: > 30 µM (inactive)
Kd [2]: > 30 µM (inactive)

COc1cc(OC)c(/C=C/S(=O)(=O)Cc2ccc(OC)c(NCC(=O)O)c2)c(OC)c1 [RIGOSERTIB]
Kd [1]: > 30 µM (inactive)
Kd [2]: > 30 µM (inactive)

CCn1c(-c2nonc2N)nc2c(C#CC(C)(C)O)ncc(OC[C@H]3CCCNC3)c21 [GSK-690693]
Kd (UMP-CMP kinase): > 30 µM (inactive)
Kd [2]: > 30 µM (inactive)

O=C(Nc1cccc(Cl)c1)Nc1ncc(CCNc2ncnc3ccsc23)s1 [SNS-314]
Kd (UMP-CMP kinase): > 30 µM (inactive)
Kd [2]: > 30 µM (inactive)

C1=C/COCc2cc(ccc2OCCN2CCCC2)Nc2nccc(n2)-c2cccc(c2)COC/1 [PACRITINIB]
Kd [1]: > 30 µM (inactive)
Kd [2]: > 30 µM (inactive)

CNC(=O)c1ccc(-c2cnc3ncc(Cc4ccc5ncccc5c4)n3n2)cc1F [CAPMATINIB]
Kd [1]: > 30 µM (inactive)
Kd [2]: > 30 µM (inactive)

C[C@@H](c1ccc2nccn2c1)n1nnc2ncc(-c3cnn(C)c3)nc21 [SAVOLITINIB]
Kd (UMP-CMP kinase): > 30 µM (inactive)
Kd [2]: > 30 µM (inactive)

Cc1cn(-c2cc(NC(=O)c3ccc(C)c(Nc4nccc(-c5cccnc5)n4)c3)cc(C(F)(F)F)c2)cn1 [NILOTINIB]
Kd (UMP-CMP kinase): > 30 µM (inactive)
Kd [2]: > 30 µM (inactive)

Nc1nc(N)c2nc(-c3cccc(O)c3)c(-c3cccc(O)c3)nc2n1 [TG100-115]
Kd [2]: > 30 µM (inactive)

COC(=O)[C@@]1(O)C[C@H]2O[C@]1(C)n1c3ccccc3c3c4c(c5c6ccccc6n2c5c31)C(=O)NC4 [K-252A]
Kd [1]: 0.073 µM (active)
Kd [2]: > 30 µM (inactive)

Cc1nc(N)sc1-c1ccnc(Nc2ccc(N3CCOCC3)cc2)n1 [CYC-116]
Kd (UMP-CMP kinase): > 30 µM (inactive)
Kd [2]: > 30 µM (inactive)

Cc1c(F)cc(C(=O)NC2CC2)cc1-c1ccc(C(=O)NCC(C)(C)C)cn1 [LOSMAPIMOD]
Kd [1]: > 30 µM (inactive)
Kd [2]: > 30 µM (inactive)

O=C(c1ccc(F)c(F)c1Nc1ccc(I)cc1F)N1CC(O)([C@@H]2CCCCN2)C1 [COBIMETINIB]
Kd [1]: > 30 µM (inactive)
Kd [2]: > 30 µM (inactive)

COc1cc(N2CCC(N3CCN(C)CC3)CC2)ccc1Nc1ncnc(Nc2ccccc2S(=O)(=O)C(C)C)n1 [ASP-3026]
Kd [1]: 0.07 µM (active)
Kd [2]: > 30 µM (inactive)

O=c1sn(-c2cccc3ccccc23)c(=O)n1Cc1ccccc1 [TIDEGLUSIB]
Kd [1]: > 30 µM (inactive)
Kd [2]: > 30 µM (inactive)

CNS(=O)(=O)Nc1nccc(Cc2c(C)c3ccc(Oc4ncccn4)cc3oc2=O)c1F [AVUTOMETINIB]
Kd [1]: > 30 µM (inactive)
Kd [2]: > 30 µM (inactive)

C[C@@H](Nc1cc(F)cc(F)c1)c1cc(C(=O)N(C)C)cc2c(=O)cc(N3CCOCC3)oc12 [AZD-8186]
Kd [1]: > 30 µM (inactive)
Kd [2]: > 30 µM (inactive)

Cc1ccc(S(=O)(=O)Nc2nc3ccccc3nc2Nc2ccc3nsnc3c2)cc1
Kd [1]: > 30 µM (inactive)
Kd [2]: > 30 µM (inactive)

C=CC(=O)N1CCC(Oc2cc3c(Nc4ccc(Cl)c(Cl)c4F)ncnc3cc2OC)CC1 [POZIOTINIB]
Kd [1]: > 30 µM (inactive)
Kd [2]: > 30 µM (inactive)
